Results reported in patent US11311560B2, “Cyclic plasmenylethanolamines” (MED-LIFE DISCOVERIES LP, priority 2017, dated 2022).

Key:
Type in all cases: in vivo, mouse
Pex7 hypomorph/null mice = experiment: Open field test after 4 weeks oral treatment
From the text: The Pex7 hypomorph/null model is a hypomorphic (B6;129S6-Pex7^tm2.3Brav/s9) mouse model on a mixed background (C57BL/6NCrl and 129S6/SvEvTac). The hypomorphic allele in Pex7 hypomorph/null was generated by inserting an inverse neo cassette into intron 2 and lox P sites surrounding exon 3. The Pex7 null allele was generated using (B6.C-Tg(cmv-cre)1Cgn/J) mouse. The Pex7 hypomorph/null mouse model has 90% survival, 0.016-0.257% of wild type Pex7 mRNA levels and 20-30% plasmalogen levels Pex7 hypomoprh/null mice (3-4 months); and wild-type animals, males and females included in treatments and behavioral tests. Pex7 hypomorph/null mice were randomly assigned, after a baseline open field test, into 3 treatment groups: PPI-1040, PPI-1011, and vehicle controls, n=6 mice per group). PPI-1011 or PPI-1040 at 50 mg/kg was given by oral gavage 5 days per week (Monday-Friday) for 4 weeks. During the treatment period, animals were weighed weekly and observed for signs of distress. The open field test was performed at the end of treatment. To avoid selection bias, data analysis was performed only at the study end. Animals were sacrificed after a 24-hour post the last dose.
The open field test is a behavioral test used to evaluate the general locomotor activity, exploratory and anxiety-like behaviour of mice in response to a novel environment. The animal is placed inside a custom made square, gray acrylic box measuring 40×40×40 cm and allowed to move freely for 5 minutes while being recorded by an overhead camera (camera model). The footage was analyzed by an automated tracking system (Any-maze Video Tracking Software, Stoelting Co, Wood Dale, Ill., USA), for total distance traveled (meters) & activity (mobility in seconds) time. The total distance traveled is the total distance that animal traveled during the test and the activity measures the amount of time the animal was active during the test.

[1] = tested on: Pex7 homozygous hypomorphic animals (Pex7^neo/neo); experiment: Sub-chronic (9 weeks) dosing with PPI-1040: plasmalogen levels in plasma, liver, lung; settings: 89.7 mg/Kg intraperitoneal, 3 doses per week
Method: Pex7 homozygous hypomorphic animals)(Pex7^neo/neo) were used as a model of rhizomelic chondrodysplasia punctata to further test the ability of PPI-1040 to augment plasmalogen levels in a deficient system, following 9 weeks of sub-chronic dosing. PPI-1040 was stored in a sealed ampoule in solution with dichloromethane under argon gas until immediately before use. At time of treatment the ampoule was opened and dichloromethane was evaporated off under nitrogen gas for 10 minutes. Neobee M-5 was then added and the solution vortexed to generate a 22.4 mg/mL formulation. Animals were dosed via intraperitoneal injections with doses adjusted by weight to ensure an 89.7 mg/Kg dose to each animal. Animals were sacrificed following 9 weeks of treatment with 3 doses administered per week (Monday, Wednesday and Friday). Blood samples were collected in EDTA tubes and then spun down in a clinical centrifuge. Plasma samples were stored at −80° C. until thawed for analysis. Tissue samples were harvested and flash frozen in liquid nitrogen and then stored at −80° C. All tissue samples were homogenized using liquid nitrogen, generating a fine powder. Extraction and plasmalogen analysis by LC-MS/MS was carried out as described above.

[2] = tested on: Pex7 homozygous hypomorphic animals (Pex7^neo/neo); experiment: 2 week comparison of plasmalogen precursors: plasmalogen levels in plasma and liver (LC-MS)
Method: Pex7 homozygous hypomorphic animals (Pex7^neo/neo) were used as a model of rhizomelic chondrodysplasia punctata (RCDP). Mice were dosed with either PPI-1011 or PPI-1040 at equimolar concentrations of 100 mg/Kg and 89.7 mg/Kg respectively. PPI-1011 was formulated in Neobee M-5, at a concentration of 12.5 mg/mL and stored at −20° C. until the first treatment day after which point the remaining formulation was stored at 4° C. Oral gavage volumes were adjusted by mouse weight to ensure a 100 mg/kg dose. PPI-1040 was stored in a sealed ampoule in solution with dichloromethane under argon gas until immediately before use. At time of treatment the ampoule was opened and dichloromethane was evaporated off under nitrogen gas for 10 minutes. Neobee M-5 was then added and the solution and vortexed to generate a 22.4 mg/mL formulation. Animals were dosed via intraperitoneal injections with doses adjusted by weight to ensure an 89.7 mg/Kg dose to each animal. Animals were sacrificed 24 hours after the ninth treatment (week 1-Monday to Friday and week 2-Monday to Thursday). Blood samples were collected in EDTA tubes and then spun down in a clinical centrifuge. Plasma samples were stored at −80° C. until thawed for analysis. Tissue samples were harvested and flash frozen in liquid nitrogen and then stored at −80° C. All tissue samples were homogenized using liquid nitrogen, generating a fine powder.
Plasma aliquots of 20 μL were analyzed, while tissues were aliquoted with anti-static polypropylene disposable milligram scoops prior to analysis. Water (200 μL) was added and samples were ice bath sonicated for 30 mins prior to the addition of 600 μL of ethyl acetate. Samples were mixed at 2000 rpm for 15 mins followed by a 10 min centrifugation at 3500 rpm. Tissue samples were diluted into an ethyl acetate (1:4) containing labeled internal standards [^13C-PlsEtn (C37^13C6H74NO7P) and ^13C-PtdEtn (C24^13C19H74NO8P)]. Water (80 μL) was added and samples were again stirred at 2000 rpm for 15 mins followed by a 2 min centrifugation at 3500 rpm. High-throughput analysis method was based on multiple reaction monitoring of one parent/fragment transition for the ion pairs, performed using liquid chromatography-mass spectrometry.

[3] = 50 mg/kg oral gavage, 5 days per week, 5 minutes test
[4] = 89.7 mg/Kg intraperitoneal, 2 weeks
[5] = PPI-1011 100 mg/Kg oral or PPI-1040 89.7 mg/Kg intraperitoneal, 2 weeks

- bioavailability and conversion to endogenous ethanolamine plasmalogen [2, 4]: bioavailable in the mouse
Compound: CC/C=C\C/C=C\C/C=C\C/C=C\C/C=C\C/C=C\CCC(=O)OC(CO/C=C\CCCCCCCCCCCCCC)COP1(=O)NCCO1 (centres unmarked) [PPI-1040, 1-(((Z)-hexadec-1-en-1-yl)oxy)-3-((2-oxido-1,3,2-oxazaphospholidin-2-yl)oxy)propan-2-yl (4Z,7Z,10Z,13Z,16Z,19Z)-docosa-4,7,10,13,16,19-hexaenoate]
- open field: time active (Pex7 hypomorph/null mice; [3]): significant decrease in activity and normalization of the hyperactive phenotype
- open field: total distance traveled (Pex7 hypomorph/null mice; [3]): significant decrease in activity and normalization of the hyperactive phenotype
- hyperactivity phenotype (Pex7 hypomorph/null mice; 50 mg/kg oral, p<0.05): significant improvement
- 16:0 plasmalogen pool in serum (FIG. 5: plasma) [1]: elevated to levels significantly above control
- liver levels of the target plasmalogen (16:0/22:6) [1]: elevated to above control levels
- liver total 16:0 plasmalogen pool [1]: elevated to above control levels
- lung levels of the target plasmalogen (16:0/22:6) [1]: elevated to control levels
- lung total 16:0 plasmalogen pool [1]: elevated to control levels
- target 16:0/22:6 ethanolamine plasmalogen in serum (FIG. 5: plasma) [1]: elevated to levels significantly higher than control
- total 16:0 plasmalogen pool in plasma [2, 4]: augmented the total 16:0 plasmalogen to control levels
- 16:0 plasmalogen pool in liver [2, 5]: augmented the 16:0 plasmalogen pool in the liver to control levels
- target plasmalogen (16:0/22:6) levels in liver [2, 5]: to levels above control
- levels of the target plasmalogen (16:0/22:6) in the plasma ([2]; PPI-1040 89.7 mg/Kg intraperitoneal, 2 weeks (9 treatments)): 2 × above control
